Experimental data published in US20050209157A1, “Short bioactive peptides and methods for their use” (priority 2001, published 2005).
Converted amounts (≈) assume the structure as drawn. Read-outs that look alike come from different tables or passages of the source. Non-standard residues stand in square brackets, D forms with d. Residues, ends and D or L forms follow the SMILES beside them. No end group written: not given here.

Experiments:
[1] = system: Candida albicans ATCC 10231; assay: Antimicrobial assay I, modified protocol (tryptic soy broth), MFC; details: minimum fungicidal concentration, Table 4
[2] = system: Pseudomonas aeruginosa ATCC 27853; assay: Antimicrobial assay I, modified protocol (tryptic soy broth), MBC; details: minimum bactericidal concentration, Table 4
[3] = system: Stapholococcus aureus ATCC 25923; assay: as above; details: minimum bactericidal concentration, Table 4
[4] = system: Escherichia coli ATCC 25922; assay: as above; details: minimum bactericidal concentration, Table 4
cancer cell lines = assay: Anti-cancer assays, MTT, summary over the cancer cell lines; type: cell-based; details: X = preferred
fungal = assay: Presently preferred antifungal peptides, selected from the MIC/MBC data; type: cell-based; details: X = preferred
Excerpt: The peptide's “length” is the number of amino acid residues in the sequence.

in vitro [5] = type: cell-based, human; details: human, human red blood cells
in vitro [6] = details: human, WI38 normal lung fibroblast cells, WI-38 LD50, Table 26, valine substitution
[7] = system: Pseudomonas aeruginosa ATCC 9027; assay: Antimicrobial assay I, MIC by OD measurement; type: cell-based
WI38 = details: Table 27
[8] = pH 7, Table 26, valine substitution, read-out: Hemolysis RBC LD50
[9] = pH 7, Table 27, read-out: Hemolysis (LD50)

Molecule	MFC Candida A.10231 [1] [µg/mL]	MBC P. aerug A.27853 [2] [µg/mL]	MBC S. aur A.25923 [3] [µg/mL]	MBC E. coli A.25922 [4] [µg/mL]	Anti-cancer (preferred peptide) (cancer cell lines)	Anti-fungal (preferred peptide) (fungal)	HC50 at 1 h (in vitro [5]; [8]) [µg/mL]	CC50 at 24 h (in vitro [6]) [µg/mL]	P. aerug (MIC) [7] [µg/mL]	WI38 LD50 (WI38) [µg/mL]	HC50 at 1 h (in vitro [5]; [9]) [µg/mL]
FAKKLAKKLAKLL-NH2 [compound 75]	30	30	>55	40	X (Preferred anticancer peptides can be selected as having LD50 values of less than or equal to about 25 μg/ml)						
FALAKLAKKAKAKLKKALKAL-NH2 [compound 26]	>50	>40	>40	>80	X (Preferred anticancer peptides can be selected as having LD50 values of less than or equal to about 25 μg/ml)	X (Preferred antifungal peptides can be selected as having MIC or MBC values of less than or equal to about 25 μg/ml)					
FAKKALKALKKL-NH2 [compound 47]	>50	>50	>50	>50	X (Preferred anticancer peptides can be selected as having LD50 values of less than or equal to about 25 μg/ml)						
FAKLLALALKLKL-NH2 [compound 94]	>50	>50	>50	>50	X (Preferred anticancer peptides can be selected as having LD50 values of less than or equal to about 25 μg/ml)						
FALAAKALKKLAKKLKKLAKKAL-NH2 [compound 23]	>50	25	30	15	X (Preferred anticancer peptides can be selected as having LD50 values of less than or equal to about 25 μg/ml)						
FAKLLAKALKKLL-NH2 [compound 55]	25	10	4	4	X (Preferred anticancer peptides can be selected as having LD50 values of less than or equal to about 25 μg/ml)	X (Preferred antifungal peptides can be selected as having MIC or MBC values of less than or equal to about 25 μg/ml)	20	32			
FALALKALKKLKKALKKAL-OH [27B]	>40	10	>40	40	X (Preferred anticancer peptides can be selected as having LD50 values of less than or equal to about 25 μg/ml)	X (Preferred antifungal peptides can be selected as having MIC or MBC values of less than or equal to about 25 μg/ml)					
FAKLLAKLAKKVL-NH2 [compound 124]	15	40	8	10	X (Preferred anticancer peptides can be selected as having LD50 values of less than or equal to about 25 μg/ml)	X (Preferred antifungal peptides can be selected as having MIC or MBC values of less than or equal to about 25 μg/ml)	55	21	100	21	300
FALALKKALKALKKAL-NH2 [compound 34]	>40	15	40	15	X (Preferred anticancer peptides can be selected as having LD50 values of less than or equal to about 25 μg/ml)	X (Preferred antifungal peptides can be selected as having MIC or MBC values of less than or equal to about 25 μg/ml)					
CC(C)C[C@H](NC(=O)[C@H](C)NC(=O)[C@H](CCCCN)NC(=O)[C@H](CCCCN)NC(=O)[C@H](CC(C)C)NC(=O)[C@H](C)NC(=O)[C@H](CCCCN)NC(=O)[C@H](CCCCN)NC(=O)[C@H](CC(C)C)NC(=O)[C@@H](CCCCN)NC(=O)[C@@H](CCCCN)NC(=O)[C@H](CC(C)C)NC(=O)[C@H](C)NC(=O)[C@H](CCCCN)NC(=O)[C@H](CCCCN)NC(=O)[C@H](CC(C)C)NC(=O)[C@H](C)NC(=O)[C@H](CCCCN)NC(=O)[C@H](CC(C)C)NC(=O)[C@H](C)NC(=O)[C@H](CC(C)C)NC(=O)[C@H](C)NC(=O)[C@@H](N)Cc1ccccc1)C(=O)O [compound 37] (H-FALALKALKKAL[dK][dK]LKKALKKAL-OH; N-terminus assumed)	>50	8 (≈ 3.15 µM)	40 (≈ 15.8 µM)	8 (≈ 3.15 µM)	X (Preferred anticancer peptides can be selected as having LD50 values of less than or equal to about 25 μg/ml)						
VAKLLAKLAKKLL-NH2 [compound 48]	10	25	4	8	X (Preferred anticancer peptides can be selected as having LD50 values of less than or equal to about 25 μg/ml)	X (Preferred antifungal peptides can be selected as having MIC or MBC values of less than or equal to about 25 μg/ml)	130	160	5	160	200
FAKALAKLAKKLL-NH2 [compound 92]	25	25	15	40	X (Preferred anticancer peptides can be selected as having LD50 values of less than or equal to about 25 μg/ml)	X (Preferred antifungal peptides can be selected as having MIC or MBC values of less than or equal to about 25 μg/ml)					
CC(C)C[C@H](NC(=O)[C@H](C)NC(=O)[C@H](CC(C)C)NC(=O)[C@H](C)NC(=O)[C@H](CC(C)C)NC(=O)[C@H](CCCCN)NC(=O)[C@H](C)NC(=O)[C@H](CC(C)C)NC(=O)[C@H](CCCCN)NC(=O)[C@H](CCCCN)NC(=O)[C@H](C)NC(=O)[C@H](CC(C)C)NC(=O)[C@H](CCCCN)NC(=O)[C@H](C)NC(=O)[C@H](CC(C)C)NC(=O)[C@H](CCCCN)NC(=O)[C@H](CCCCN)NC(=O)[C@H](C)NC(=O)[C@@H](N)Cc1ccccc1)C(N)=O [compound 36]	>40	15 (≈ 7.36 µM)	10 (≈ 4.91 µM)	30 (≈ 14.7 µM)	X (Preferred anticancer peptides can be selected as having LD50 values of less than or equal to about 25 μg/ml)		12	19 (≈ 9.32 µM)			
FALALKALKKALKKLKKALKKAL-OH [compound 1]	>50	30	25	25	X (Preferred anticancer peptides can be selected as having LD50 values of less than or equal to about 25 μg/ml)		20	27			
FAKKLAKKLKKLAKKLAKKWKL-NH2 [compound 70]	>50	30	40	40	X (Preferred anticancer peptides can be selected as having LD50 values of less than or equal to about 25 μg/ml)						
